The source of these data is patent publication US20100311036A1, “Methods for Augmentation of Cell Cryopreservation” (UNIVERSITY OF SOUTH CAROLINA, priority 2009, published 2010).

In data set [1] the test system is R1 mouse ES cells. Briefly: immediate cell viability post cryopreservation (membrane integrity, live/dead assay). Format: cell-based. As to conditions: post ultrafast vitrification in quartz microcapillary; 2 M PROH and/or 0.5 M extracellular trehalose; within 3 hr at day 0. The procedure: (§1) A novel ultrafast cooling (cooling rate >2×10^5° C./min) technique for ice-free cryopreservation (i.e., ultrafast vitrification) of mouse ES cells has been recently developed using quartz microcapillaries (180 μm in inner diameter and 10 μm in wall thickness in the working part). A comparison of the quartz microcapillary and the traditional French type plastic straw used for cell vitrification is given in FIG. 2. […]
(§2) The immediate cell viability post cryopreservation represented by membrane integrity was assessed using the standard live/dead assay kit of two fluorescent probes: calcein AM and ethidium homodimer (Invitrogen, Carlsbad, Calif.). Cells that excluded ethidium homodimer and retained the fluorescent calcein were counted as being viable. To check cell viability more than one day post cryopreservation, cell attachment evaluated at day 1 and proliferation/growth evaluated over a three-day observation period were also studied. […] The number of cells in at least 20 randomly selected representative fields under a 10× objective was counted every day for all the samples. Proliferation was assessed by normalizing the number of cells at day 3 and day 2 to that at day 1. Attachment efficiency (i.e., viability at day 1) was calculated as the ratio of the number of cells of a cryopreserved sample to that of the control non-frozen sample at day 1. […]

Data set [2] relates to R1 mouse ES cells. Briefly: attachment efficiency (1 day viability) post cryopreservation. Format: cell-based. As to conditions: post ultrafast vitrification in quartz microcapillary; 2 M PROH and/or 0.5 M extracellular trehalose; day 1, relative to non-frozen control. The procedure:
as §1, §2

SMILES strings stand for the structures. A value given as a limit tells only on which side of the number the result lay.

For `CC(O)CO` (stereo not shown) [1,2-propanediol], the immediate cell viability in the data set with R1 mouse ES cells [1] was about 20%. Moreover, the “1 day viability (attachment efficiency)” value in the data set with R1 mouse ES cells [2] is reported as about 12%.

`OC[C@H]1O[C@H](O[C@H]2O[C@H](CO)[C@@H](O)[C@H](O)[C@H]2O)[C@H](O)[C@@H](O)[C@@H]1O` [trehalose]: the immediate cell viability result with R1 mouse ES cells [1] is reported as “about 65%”. Further, the “1 day viability (attachment efficiency)” value in the data set with R1 mouse ES cells [2] is on record as under 2%.
